Measured values: ChEMBL document CHEMBL1201862, “PubChem BioAssay data set” (2004)
Active and inactive are the calls of the source.

Columns and labels:
[1] = target: T1, Intestinal-type alkaline phosphatase (Homo sapiens, UniProt P09923); assay: human intestinal alkaline phosphatase activators, dose response, biochemical, luminescence, uHTS hits (AID 463120); assay type: functional
[2] = target: T1, Intestinal-type alkaline phosphatase; assay: human IAP activators, dose response, biochemical, luminescent, uHTS hits, set 2 (AID 488817); assay type: functional;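 further: potency of activators that raise enzyme activity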
[3] = target: T2, Alkaline phosphatase, tissue-nonspecific isozyme (Homo sapiens, UniProt P05186); assay: TNAP enzyme activators, dose response, selectivity assay for human IAP activator project, biochemical, TNAP isozyme, human IAP uHTS hits (AID 488886); assay type: functional;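 further: potency of compounds raising TNAP activity as a selectivity check on IAP activators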
T2 sequence (P05186 whole entry): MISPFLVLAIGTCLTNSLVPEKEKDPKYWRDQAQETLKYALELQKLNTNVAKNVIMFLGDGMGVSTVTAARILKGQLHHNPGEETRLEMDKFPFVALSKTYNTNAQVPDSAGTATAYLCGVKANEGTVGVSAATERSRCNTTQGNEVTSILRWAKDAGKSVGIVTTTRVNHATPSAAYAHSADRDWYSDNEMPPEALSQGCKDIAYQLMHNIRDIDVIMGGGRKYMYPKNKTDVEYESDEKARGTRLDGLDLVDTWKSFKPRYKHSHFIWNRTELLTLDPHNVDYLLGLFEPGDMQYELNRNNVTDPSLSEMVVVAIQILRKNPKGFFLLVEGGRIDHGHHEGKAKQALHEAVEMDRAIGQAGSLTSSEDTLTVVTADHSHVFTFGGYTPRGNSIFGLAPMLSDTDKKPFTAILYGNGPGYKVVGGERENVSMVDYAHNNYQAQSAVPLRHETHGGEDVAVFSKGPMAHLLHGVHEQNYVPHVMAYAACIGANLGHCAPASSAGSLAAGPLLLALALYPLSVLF

[4] = target: T3, Intestinal-type alkaline phosphatase (Mus musculus, UniProt P24822); assay: PubChem AID 488875; assay type: functional
T3 sequence (P24822 whole entry): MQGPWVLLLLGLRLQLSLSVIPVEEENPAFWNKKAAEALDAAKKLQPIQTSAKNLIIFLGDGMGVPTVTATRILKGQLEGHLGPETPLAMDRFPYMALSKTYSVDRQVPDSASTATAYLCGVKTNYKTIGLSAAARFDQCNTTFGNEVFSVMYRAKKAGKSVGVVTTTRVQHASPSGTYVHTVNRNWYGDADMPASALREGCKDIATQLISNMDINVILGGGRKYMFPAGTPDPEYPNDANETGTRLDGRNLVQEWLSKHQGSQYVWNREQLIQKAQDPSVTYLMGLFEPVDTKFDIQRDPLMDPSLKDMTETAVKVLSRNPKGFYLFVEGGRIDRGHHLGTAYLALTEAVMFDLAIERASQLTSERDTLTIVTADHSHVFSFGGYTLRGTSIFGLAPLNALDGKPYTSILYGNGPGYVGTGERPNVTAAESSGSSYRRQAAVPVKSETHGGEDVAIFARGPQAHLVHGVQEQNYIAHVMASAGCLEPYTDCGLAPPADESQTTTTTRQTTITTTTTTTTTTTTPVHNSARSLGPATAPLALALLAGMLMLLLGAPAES

INS1 = assay: beta cell apoptosis inhibitors, cytokine rescue, dose response, luminescence, retest (AID 449756); assay type: functional, cell-based; settings: Rattus norvegicus;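 further: cell death triggered by IL-1 beta plus TNF-alpha plus IFN-gamma mixture; protective hits raise ATP signal compared with cytokine alone wells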
[5] = target: Heat shock protein HSP 90-alpha (Homo sapiens, UniProt P07900); assay type: functional, organism-based
[6] = target: Acyl-homoserine lactone acylase PvdQ (Pseudomonas aeruginosa (strain LESB58), UniProt Q9I194); assay: P. aeruginosa PvdQ acylase inhibitors, dose response, biochemical, fluorescence, plate reader and imaging, cherry-picks (AID 493231)
Acyl-homoserine lactone acylase PvdQ, sequence (Q9I194 24-193 limits assumed): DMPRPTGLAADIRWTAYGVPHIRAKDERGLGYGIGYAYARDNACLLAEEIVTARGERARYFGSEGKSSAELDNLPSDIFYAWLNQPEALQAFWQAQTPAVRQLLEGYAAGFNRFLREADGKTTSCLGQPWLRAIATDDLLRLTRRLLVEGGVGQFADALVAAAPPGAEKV
Acyl-homoserine lactone acylase PvdQ, sequence (Q9I194 217-762 limits assumed): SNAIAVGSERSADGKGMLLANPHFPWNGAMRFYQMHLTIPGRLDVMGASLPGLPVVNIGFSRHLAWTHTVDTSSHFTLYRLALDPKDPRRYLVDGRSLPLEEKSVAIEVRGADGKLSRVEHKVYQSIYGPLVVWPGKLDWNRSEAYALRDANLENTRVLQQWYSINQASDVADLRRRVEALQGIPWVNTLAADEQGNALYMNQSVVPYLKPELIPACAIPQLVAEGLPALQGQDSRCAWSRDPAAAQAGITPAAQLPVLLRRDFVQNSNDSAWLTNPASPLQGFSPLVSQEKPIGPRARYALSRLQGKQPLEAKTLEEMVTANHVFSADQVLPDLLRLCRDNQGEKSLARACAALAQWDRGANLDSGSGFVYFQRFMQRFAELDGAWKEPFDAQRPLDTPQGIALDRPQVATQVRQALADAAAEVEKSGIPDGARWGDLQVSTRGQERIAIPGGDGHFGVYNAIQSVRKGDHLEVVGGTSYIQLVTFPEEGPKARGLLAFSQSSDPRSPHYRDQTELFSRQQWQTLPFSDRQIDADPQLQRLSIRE

[7] = target: T4, Voltage-gated N-type calcium channel alpha-1B subunit/Amyloid beta A4 precursor protein-binding family A member 1 (Homo sapiens, UniProt Q00975+Q02410); assay type: protein assay
[8] = cytotoxicity in KRAS-transformed pancreatic duct cells, primary screen, cell-based, fluorescence, HTS (AID 431); assay type: functional; settings: Homo sapiens;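 further: cell line used: HPDE-C7K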
[9] = target: Induced myeloid leukemia cell differentiation protein Mcl-1 (Homo sapiens, UniProt Q07820); assay type: functional
Induced myeloid leukemia cell differentiation protein Mcl-1, sequence (Q07820 whole entry): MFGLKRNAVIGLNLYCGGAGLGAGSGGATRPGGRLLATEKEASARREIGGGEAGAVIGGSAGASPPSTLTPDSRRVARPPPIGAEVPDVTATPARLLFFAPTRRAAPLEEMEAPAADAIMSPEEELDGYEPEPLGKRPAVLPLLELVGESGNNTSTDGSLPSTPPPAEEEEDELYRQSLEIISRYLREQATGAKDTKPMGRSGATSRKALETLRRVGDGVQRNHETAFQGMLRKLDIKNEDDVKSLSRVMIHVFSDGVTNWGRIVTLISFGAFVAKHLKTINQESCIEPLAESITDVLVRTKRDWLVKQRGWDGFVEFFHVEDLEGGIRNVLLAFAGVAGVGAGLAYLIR

Ephrin type-A receptor 4 = Ephrin type-A receptor 4 (Mus musculus, UniProt Q03137); assay: inhibitors of EphA4 binding to KYL peptide, primary screen, biochemical, colorimetric, mouse EphA4 (AID 689); assay type: functional
Estrogen receptor = target: T5, Estrogen receptor (Homo sapiens, UniProt P03372);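 further: potency for inhibiting coactivator peptide recruitment to the receptor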
T5 sequence (P03372 whole entry): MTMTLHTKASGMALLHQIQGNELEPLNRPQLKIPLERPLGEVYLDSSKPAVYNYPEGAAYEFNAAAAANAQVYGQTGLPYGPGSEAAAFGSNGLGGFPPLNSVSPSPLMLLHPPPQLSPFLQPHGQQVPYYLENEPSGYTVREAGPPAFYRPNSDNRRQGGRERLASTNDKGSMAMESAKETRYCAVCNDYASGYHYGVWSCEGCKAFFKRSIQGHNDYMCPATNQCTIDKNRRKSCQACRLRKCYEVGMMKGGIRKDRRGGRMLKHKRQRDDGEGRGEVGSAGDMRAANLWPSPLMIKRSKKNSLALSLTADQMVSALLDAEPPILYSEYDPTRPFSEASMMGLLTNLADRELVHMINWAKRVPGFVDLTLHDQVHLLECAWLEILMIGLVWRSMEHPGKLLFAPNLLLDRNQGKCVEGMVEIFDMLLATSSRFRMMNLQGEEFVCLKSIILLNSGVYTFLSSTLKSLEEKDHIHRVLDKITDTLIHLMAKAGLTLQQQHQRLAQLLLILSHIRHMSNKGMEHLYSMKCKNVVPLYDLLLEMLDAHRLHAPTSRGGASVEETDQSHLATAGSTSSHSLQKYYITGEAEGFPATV

[10] = target: T4, Voltage-gated N-type calcium channel alpha-1B subunit/Amyloid beta A4 precursor protein-binding family A member 1; assay type: protein assay; remark: listed apart in the source
[11] = cytotoxicity in HPDE-C7 cells, cell-based, fluorescence, HTS (AID 430); assay type: functional; settings: Homo sapiens
Cytochrome P450 2C19 [12] = target: T6, Cytochrome P450 2C19 (Homo sapiens, UniProt P33261); assay: qHTS Assay for Inhibitors and Substrates of Cytochrome P450 2C19. [Related pubchem assays: 410 ]; assay type: ADME; settings: read-out: Potency
T6 sequence (P33261 whole entry): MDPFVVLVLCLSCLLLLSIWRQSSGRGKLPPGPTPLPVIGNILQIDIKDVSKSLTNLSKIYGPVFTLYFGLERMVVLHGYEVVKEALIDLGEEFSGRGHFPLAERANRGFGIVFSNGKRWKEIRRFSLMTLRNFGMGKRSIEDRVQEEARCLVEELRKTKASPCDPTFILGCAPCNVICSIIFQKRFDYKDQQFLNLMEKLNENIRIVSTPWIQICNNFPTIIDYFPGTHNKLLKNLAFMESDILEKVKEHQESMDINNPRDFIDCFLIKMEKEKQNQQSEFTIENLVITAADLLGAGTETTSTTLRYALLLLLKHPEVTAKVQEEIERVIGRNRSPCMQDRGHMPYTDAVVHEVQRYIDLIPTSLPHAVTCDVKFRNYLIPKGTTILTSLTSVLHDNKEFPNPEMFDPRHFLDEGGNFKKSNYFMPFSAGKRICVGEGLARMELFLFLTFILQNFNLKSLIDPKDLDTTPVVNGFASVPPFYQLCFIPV

Cytochrome P450 2D6 = Cytochrome P450 2D6 (Homo sapiens, UniProt P10635); assay: qHTS Assay for Inhibitors and Substrates of Cytochrome P450 2D6. [Related pubchem assays: 410 ]; assay type: ADME; settings: read-out: Potency
Aspartyl aminopeptidase = Aspartyl aminopeptidase (Plasmodium falciparum 3D7, UniProt Q8I2J3)
Aspartyl aminopeptidase, sequence (Q8I2J3 whole entry): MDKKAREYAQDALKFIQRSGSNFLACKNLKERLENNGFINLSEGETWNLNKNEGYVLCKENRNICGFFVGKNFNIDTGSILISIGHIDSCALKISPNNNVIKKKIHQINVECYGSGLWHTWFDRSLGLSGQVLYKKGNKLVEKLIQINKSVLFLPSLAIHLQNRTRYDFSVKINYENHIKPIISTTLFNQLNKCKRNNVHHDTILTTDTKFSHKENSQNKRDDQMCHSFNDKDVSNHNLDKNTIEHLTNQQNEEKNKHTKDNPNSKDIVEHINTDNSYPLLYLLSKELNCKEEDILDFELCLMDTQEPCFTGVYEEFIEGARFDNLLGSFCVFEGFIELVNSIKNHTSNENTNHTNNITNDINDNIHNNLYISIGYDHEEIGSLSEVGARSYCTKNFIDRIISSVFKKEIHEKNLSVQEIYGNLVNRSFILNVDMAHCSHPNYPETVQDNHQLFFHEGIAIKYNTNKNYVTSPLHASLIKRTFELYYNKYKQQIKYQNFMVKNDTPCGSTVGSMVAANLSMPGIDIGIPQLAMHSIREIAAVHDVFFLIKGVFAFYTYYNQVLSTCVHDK

Procathepsin L = Procathepsin L (Homo sapiens, UniProt P07711)
Procathepsin L, sequence (P07711 whole entry): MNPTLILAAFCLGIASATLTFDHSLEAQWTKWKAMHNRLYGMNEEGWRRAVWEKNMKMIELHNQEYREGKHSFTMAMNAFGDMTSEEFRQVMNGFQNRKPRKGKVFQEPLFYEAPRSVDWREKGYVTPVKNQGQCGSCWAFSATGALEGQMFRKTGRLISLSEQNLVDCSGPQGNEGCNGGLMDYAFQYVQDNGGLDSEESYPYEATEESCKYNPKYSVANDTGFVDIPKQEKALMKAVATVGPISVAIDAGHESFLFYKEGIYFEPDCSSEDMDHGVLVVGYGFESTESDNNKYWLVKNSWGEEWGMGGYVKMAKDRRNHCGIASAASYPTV

Cytochrome P450 2C19 [13] = target: T6, Cytochrome P450 2C19; assay: Cytochrome panel assay with activity outcomes. Panel member name: p450-cyp2c19 Compounds with AC50 equal or less than 10 uM are considered active; assay type: functional
[14] = target: Lysosomal acid glucosylceramidase (Homo sapiens, UniProt P04062); assay: Dose response cell-based high throughput screening assay to identify enhancers of beta-glucosidase activity. [Related pubchem assays: 784 ]; assay type: functional
Lysosomal acid glucosylceramidase, sequence (P04062 whole entry): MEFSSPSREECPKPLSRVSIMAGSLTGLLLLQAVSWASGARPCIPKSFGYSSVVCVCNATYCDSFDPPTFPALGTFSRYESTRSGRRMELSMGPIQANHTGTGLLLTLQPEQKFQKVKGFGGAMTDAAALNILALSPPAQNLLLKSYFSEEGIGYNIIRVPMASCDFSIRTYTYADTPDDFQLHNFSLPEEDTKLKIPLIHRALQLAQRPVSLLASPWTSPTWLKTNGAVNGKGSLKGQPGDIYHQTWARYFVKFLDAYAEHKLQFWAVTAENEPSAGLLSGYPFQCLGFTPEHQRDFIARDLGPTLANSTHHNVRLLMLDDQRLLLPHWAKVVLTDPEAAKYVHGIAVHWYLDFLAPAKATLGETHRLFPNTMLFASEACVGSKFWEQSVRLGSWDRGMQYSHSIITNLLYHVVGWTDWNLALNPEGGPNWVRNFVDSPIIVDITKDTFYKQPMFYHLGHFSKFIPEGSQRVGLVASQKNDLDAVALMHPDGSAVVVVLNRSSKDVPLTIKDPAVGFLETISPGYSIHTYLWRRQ

Cytochrome P450 2C9 = Cytochrome P450 2C9 (Homo sapiens, UniProt P11712)
Cytochrome P450 2C9, sequence (P11712 whole entry): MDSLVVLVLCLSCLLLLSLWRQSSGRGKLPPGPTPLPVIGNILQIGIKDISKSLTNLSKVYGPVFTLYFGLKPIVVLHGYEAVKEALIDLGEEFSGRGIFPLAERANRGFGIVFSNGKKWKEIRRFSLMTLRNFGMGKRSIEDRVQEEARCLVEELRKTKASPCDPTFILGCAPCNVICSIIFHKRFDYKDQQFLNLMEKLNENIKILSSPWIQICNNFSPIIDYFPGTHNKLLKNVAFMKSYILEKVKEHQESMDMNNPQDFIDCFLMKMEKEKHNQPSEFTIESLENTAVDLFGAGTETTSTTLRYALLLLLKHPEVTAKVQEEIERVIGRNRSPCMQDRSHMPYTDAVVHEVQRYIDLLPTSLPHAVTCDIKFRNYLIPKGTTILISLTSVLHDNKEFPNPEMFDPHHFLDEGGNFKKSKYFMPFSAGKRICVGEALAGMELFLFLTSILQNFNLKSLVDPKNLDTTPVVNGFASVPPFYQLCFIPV

Troponin, cardiac muscle = Troponin, cardiac muscle (Homo sapiens, UniProt P19429+P45379+P63316); assay: Fluorescence-based biochemical high throughput dose response assay for activators of the calcium sensitivity of cardiac Regulated Thin Filaments (RTF). [Related pubchem assays (depositor defined):AID493008, AID493018, AID504382, AID504383]; assay type: protein-complex assay
[15] = target: G-protein coupled receptor 55 (Homo sapiens, UniProt Q9Y2T6); assay: GPR55 antagonists blocking LPI-driven arrestin recruitment, primary screen, imaging, U2OS, beta-arrestin-GFP, LPI agonist (AID 2013); assay type: functional;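 further: antagonist potency measured as reduced agonist-driven arrestin aggregation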
G-protein coupled receptor 55, sequence (Q9Y2T6 whole entry): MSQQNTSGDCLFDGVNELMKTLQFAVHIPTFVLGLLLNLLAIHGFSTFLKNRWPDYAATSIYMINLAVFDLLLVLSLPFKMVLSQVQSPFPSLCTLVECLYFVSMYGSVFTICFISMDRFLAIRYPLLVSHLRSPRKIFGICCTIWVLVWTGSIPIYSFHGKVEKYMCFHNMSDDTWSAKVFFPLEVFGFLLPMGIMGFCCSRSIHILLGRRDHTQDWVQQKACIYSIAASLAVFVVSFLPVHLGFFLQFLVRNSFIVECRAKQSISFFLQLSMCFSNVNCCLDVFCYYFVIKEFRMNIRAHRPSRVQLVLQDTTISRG

[16] = target: T3, Intestinal-type alkaline phosphatase; assay: PubChem AID 488785; assay type: functional
[17] = system: Streptococcus sp. 'group A'; assay: growth inhibition of control SK(-) GAS strain, dose response, counter-screen for streptokinase expression inhibitor project, luminescence, kanamycin, BacTiterGlo, confirmation (AID 1900); assay type: functional, organism-based
Streptokinase A = target: T7, Streptokinase A (Streptococcus pyogenes serotype M1, UniProt P10520); assay: S. pyogenes streptokinase expression inhibitors, potency, dose response, plasminogen activation absorbance, OD405 (AID 1914); assay type: functional, Streptococcus pyogenes M1 GAS;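 further: secreted streptokinase activity via plasminogen activation per viability signal from cell pellet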
T7 sequence (P10520 whole entry): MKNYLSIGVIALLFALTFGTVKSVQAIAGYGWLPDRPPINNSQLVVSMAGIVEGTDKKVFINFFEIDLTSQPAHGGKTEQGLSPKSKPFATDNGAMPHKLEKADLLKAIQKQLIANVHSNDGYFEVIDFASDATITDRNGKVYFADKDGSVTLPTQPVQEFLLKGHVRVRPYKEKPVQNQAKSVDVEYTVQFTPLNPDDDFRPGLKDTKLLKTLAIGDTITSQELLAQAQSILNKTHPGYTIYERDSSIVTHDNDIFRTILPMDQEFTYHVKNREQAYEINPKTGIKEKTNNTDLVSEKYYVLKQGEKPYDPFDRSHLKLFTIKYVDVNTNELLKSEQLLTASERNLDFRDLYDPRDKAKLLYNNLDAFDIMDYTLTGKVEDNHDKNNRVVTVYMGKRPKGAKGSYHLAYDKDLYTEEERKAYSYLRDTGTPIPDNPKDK

[18] = target: T1, Intestinal-type alkaline phosphatase; assay: activation of human intestinal alkaline phosphatase – biochemical, dose response (AID 488873); assay type: functional
[19] = target: T2, Alkaline phosphatase, tissue-nonspecific isozyme; assay: TNAP enzyme inhibition by screening hits, dose response, selectivity assay for mouse IAP inhibitor project, biochemical, human TNAP, uHTS hits (AID 488906); assay type: functional
Streptococcus = assay: Group A Streptococcus viability loss, dose response, counter-screen for streptokinase expression inhibitor project, luminescence, BacTiterGlo (AID 1915); assay type: functional, organism-based;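 further: potency for reduction of bacterial viability or growth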
Aminopeptidase N = target: T8, Aminopeptidase N (Plasmodium falciparum FcB1/Columbia, UniProt O96935); assay: P. falciparum M1AAP inhibitors, biochemical, fluorogenic H-Leu-NHMec substrate, 1536-well (AID 1445); parameters: species or system Plasmodium falciparum 3D7, 3D7
T8 sequence (O96935 whole entry): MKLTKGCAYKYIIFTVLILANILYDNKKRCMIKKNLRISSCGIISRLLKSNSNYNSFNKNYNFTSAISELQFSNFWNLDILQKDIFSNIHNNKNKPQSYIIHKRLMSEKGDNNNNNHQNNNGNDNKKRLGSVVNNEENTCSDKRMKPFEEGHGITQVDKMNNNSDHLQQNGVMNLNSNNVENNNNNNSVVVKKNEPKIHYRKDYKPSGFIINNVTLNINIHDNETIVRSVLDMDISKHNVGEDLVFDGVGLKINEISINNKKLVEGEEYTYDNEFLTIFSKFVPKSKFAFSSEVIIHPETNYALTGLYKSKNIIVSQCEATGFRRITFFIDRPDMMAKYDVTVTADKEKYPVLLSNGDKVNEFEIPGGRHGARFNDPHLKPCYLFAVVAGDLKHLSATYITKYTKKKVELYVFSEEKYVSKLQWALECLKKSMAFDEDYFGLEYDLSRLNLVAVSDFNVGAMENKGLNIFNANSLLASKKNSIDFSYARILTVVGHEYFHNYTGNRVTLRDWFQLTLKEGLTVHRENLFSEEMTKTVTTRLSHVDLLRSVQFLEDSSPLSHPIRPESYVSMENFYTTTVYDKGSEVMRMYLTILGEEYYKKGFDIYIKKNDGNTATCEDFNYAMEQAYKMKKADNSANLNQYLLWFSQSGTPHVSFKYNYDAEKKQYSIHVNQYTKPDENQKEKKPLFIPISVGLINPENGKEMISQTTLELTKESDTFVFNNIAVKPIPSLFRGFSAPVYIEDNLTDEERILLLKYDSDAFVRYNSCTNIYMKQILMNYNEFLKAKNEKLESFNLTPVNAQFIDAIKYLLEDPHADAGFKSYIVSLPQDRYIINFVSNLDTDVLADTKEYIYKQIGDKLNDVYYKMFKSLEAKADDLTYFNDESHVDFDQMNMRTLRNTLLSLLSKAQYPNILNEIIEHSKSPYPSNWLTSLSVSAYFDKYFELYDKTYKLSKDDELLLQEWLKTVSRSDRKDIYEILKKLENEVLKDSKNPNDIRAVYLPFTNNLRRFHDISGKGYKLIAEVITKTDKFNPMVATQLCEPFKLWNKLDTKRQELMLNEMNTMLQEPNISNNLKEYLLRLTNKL

T1 sequence (P09923 whole entry): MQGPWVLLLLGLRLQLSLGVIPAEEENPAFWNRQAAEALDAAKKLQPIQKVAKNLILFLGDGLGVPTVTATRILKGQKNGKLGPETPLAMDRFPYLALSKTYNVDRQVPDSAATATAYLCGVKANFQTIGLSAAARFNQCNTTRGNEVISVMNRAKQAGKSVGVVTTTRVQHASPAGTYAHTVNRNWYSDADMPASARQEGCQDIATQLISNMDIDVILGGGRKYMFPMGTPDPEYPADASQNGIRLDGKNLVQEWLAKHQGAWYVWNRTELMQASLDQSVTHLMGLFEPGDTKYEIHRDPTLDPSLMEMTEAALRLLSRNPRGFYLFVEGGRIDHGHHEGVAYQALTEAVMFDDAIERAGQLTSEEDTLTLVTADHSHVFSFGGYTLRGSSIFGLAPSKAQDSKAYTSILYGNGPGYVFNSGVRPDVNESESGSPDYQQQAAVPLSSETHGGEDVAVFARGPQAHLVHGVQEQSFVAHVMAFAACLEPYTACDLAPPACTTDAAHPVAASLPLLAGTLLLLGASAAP

SMILES: CC1=NN(c2nc3ccccc3[nH]2)C(=O)/C1=C/N(C)C
- EC50 [1]: 12.3 µM (active)
- EC50 [2]: 23.2 µM (active)
- EC50 [3]: 11.4 µM (active)
- EC50 [4]: > 100 µM (inactive)
- AC50 (INS1): 2.48 µM (active)
- AC50 [5]: 6.12 µM (active)

SMILES: Cc1cc(C)nc(N(C#N)Cc2ccc([N+](=O)[O-])cc2)n1
- AC50 [6]: > 100 µM (inactive)

SMILES: CSc1nc(NCCOCCO)c2sc3nc(-c4ccco4)c4c(c3c2n1)CCC4
- IC50 [7]: 14.7 µM (active)
- EC50 [8]: 6.86 µM (active)
- IC50 [9]: 1.92 µM (active)
- IC50 (Ephrin type-A receptor 4): > 100 µM (not active)
- IC50 (Estrogen receptor): > 50 µM (not active)
- IC50 [10]: 1.98 µM (active)
- EC50 [11]: 8.85 µM (active)

SMILES: CCOC(=O)[C@]1(C(NC(=O)OC)c2cccc(F)c2)CCCC1=O (some centres undefined)
- AC50 (Cytochrome P450 2C19 [12]): 3.98 µM (inconclusive)
- AC50 (Cytochrome P450 2D6): 3.98 µM (inconclusive)

SMILES: CCOc1cc(C(=O)NC(=S)Nn2cnnc2)cc(OCC)c1OCC
- IC50 (Aspartyl aminopeptidase): 0.921 µM (active)
- IC50 (Procathepsin L): > 59.6 µM (not active)

SMILES: COc1ccc(C(=O)n2cnnc2N)cc1
- IC50 (Aspartyl aminopeptidase): 2.51 µM (active)
- IC50 (Procathepsin L): > 59.6 µM (not active)

SMILES: CCOC(=O)c1ccc(NC(=O)c2ccco2)cc1
- AC50 [6]: 57.2 µM (active)

SMILES: COc1cccc2cc(NC(=O)C3CCCCC3)c(=O)oc12
- AC50 (Cytochrome P450 2C19 [13]): 39.8 µM (inconclusive)
- EC50 [14]: > 50 µM (not active)
- AC50 (Cytochrome P450 2C9): inconclusive

SMILES: Cn1cc(/C=C2\SC(=S)N(NC(=O)c3ccccc3)C2=O)c2ccccc21
- EC50 (Troponin, cardiac muscle): 1.47 µM (active)

SMILES: Cc1ccc(-c2nc(SCC(=O)N(C)C3CCS(=O)(=O)C3)[nH]c2-c2ccc(C)cc2)cc1 (centres undefined)
- IC50 [15]: 3.83 µM (active)

SMILES: NS(=O)(=O)c1ccc(-c2ccc(/C=C3\SC(=S)N(C4CCS(=O)(=O)C4)C3=O)o2)cc1 (centres undefined)
- IC50 [16]: > 100 µM (inactive)
- EC50 [17]: 7.36 µM (active)
- EC50 (Streptokinase A): > 150 µM (not active)
- IC50 [9]: 1.85 µM (active)
- EC50 [18]: 29.4 µM (active)
- IC50 [19]: 1.32 µM (active)
- EC50 (Streptococcus): 32.2 µM (active)

SMILES: CC(=O)Nc1cccc(NC(=O)C2CCCN2C(=O)Nc2ccc(C)cc2)c1 (centres undefined)
- EC50 [14]: > 50 µM (not active)
- IC50 (Aminopeptidase N): 61.3 µM (active)

SMILES: Cc1nn(C)c(C(=O)NN=C(S)NCc2ccccc2)c1Cl
- EC50 [1]: 14.8 µM (active)
- EC50 [2]: 17 µM (active)
- EC50 [3]: 17.3 µM (active)
- EC50 [4]: > 100 µM (inactive)
